Assay results: the supplement of paper PMC13207355

What was measured:
Details in all cases: exposure time: 72 h
E13 [1] = patient-derived glioblastoma stem cells of classical subtype; experiment: surviving fraction (nuclei count normalised to DMSO); higher = more cells surviving (less toxic)
E21 [2] = patient-derived glioblastoma stem cells of mesenchymal subtype; experiment: as above
E28 [3] = patient-derived glioblastoma stem cells of classical subtype; experiment: as above
E31 [4] = patient-derived glioblastoma stem cells of proneural subtype; experiment: as above
E34 [5] = patient-derived glioblastoma stem cells of proneural subtype; experiment: as above
E57 [6] = patient-derived glioblastoma stem cells of mesenchymal subtype; experiment: as above
FT3469 [7] = normal neural stem cell line; experiment: as above
E13 [8] = experiment: phenotypic distance (Euclidean, principal components) from DMSO controls (arbitrary units); higher = stronger morphological change
E21 [9] = experiment: as above
E28 [10] = experiment: as above
E31 [11] = experiment: as above
E34 [12] = experiment: as above
E57 [13] = experiment: as above
FT3469 [14] = experiment: as above
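Wherever phenotypic distance (Euclidean, principal components) from DMSO controls is given: cell Painting imaging in 384-well plates, CellProfiler features reduced to at least 20 principal components, Euclidean distance versus same-plate DMSO vehicle wells (0.1% v/v), median over six images per well.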
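Wherever surviving fraction (nuclei count normalised to DMSO) is given: nuclei counted by high-content imaging of Hoechst-stained cells in laminin-coated 384-well plates, relative to 0.1% DMSO vehicle wells, with staurosporine as cell-death control.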

Cn1nnc2c(C(N)=O)ncn2c1=O [Temozolomide]
Details	phenotypic distance	surviving fraction
E13 [1], 4.1 nM	–	0.934
E13 [1], 12.3 nM	–	0.862
E13 [1], 37 nM	–	0.932
E13 [1], 111.1 nM	–	0.981
E13 [1], 333.3 nM	–	0.909
E13 [1], 1000 nM	–	0.936
E13 [1], 3000 nM	–	1.04
E13 [8], 4.1 nM	0.92	–
E13 [8], 12.3 nM	0.797	–
E13 [8], 37 nM	0.786	–
E13 [8], 111.1 nM	0.576	–
E13 [8], 333.3 nM	0.8	–
E13 [8], 1000 nM	0.525	–
E13 [8], 3000 nM	0.666	–
E21 [2], 4.1 nM	–	0.919
E21 [2], 12.3 nM	–	0.974
E21 [2], 37 nM	–	0.955
E21 [2], 111.1 nM	–	0.899
E21 [2], 333.3 nM	–	0.883
E21 [2], 1000 nM	–	0.988
E21 [2], 3000 nM	–	0.862
E21 [9], 4.1 nM	1.04	–
E21 [9], 12.3 nM	0.604	–
E21 [9], 37 nM	0.561	–
E21 [9], 111.1 nM	0.642	–
E21 [9], 333.3 nM	1.07	–
E21 [9], 1000 nM	0.394	–
E21 [9], 3000 nM	0.971	–
E28 [3], 4.1 nM	–	0.981
E28 [3], 12.3 nM	–	0.95
E28 [3], 37 nM	–	1.11
E28 [3], 111.1 nM	–	1.02
E28 [3], 333.3 nM	–	1.06
E28 [3], 1000 nM	–	0.921
E28 [3], 3000 nM	–	0.979
E28 [10], 4.1 nM	0.473	–
E28 [10], 12.3 nM	0.496	–
E28 [10], 37 nM	0.568	–
E28 [10], 111.1 nM	0.62	–
E28 [10], 333.3 nM	0.378	–
E28 [10], 1000 nM	0.593	–
E28 [10], 3000 nM	0.453	–
E31 [4], 4.1 nM	–	0.882
E31 [4], 12.3 nM	–	0.904
E31 [4], 37 nM	–	0.833
E31 [4], 111.1 nM	–	1.02
E31 [4], 333.3 nM	–	1.02
E31 [4], 1000 nM	–	0.972
E31 [4], 3000 nM	–	0.803
E31 [11], 4.1 nM	1.06	–
E31 [11], 12.3 nM	2.72	–
E31 [11], 37 nM	0.892	–
E31 [11], 111.1 nM	0.246	–
E31 [11], 333.3 nM	0.629	–
E31 [11], 1000 nM	0.411	–
E31 [11], 3000 nM	0.89	–
E34 [5], 4.1 nM	–	0.988
E34 [5], 12.3 nM	–	0.89
E34 [5], 37 nM	–	1.01
E34 [5], 111.1 nM	–	0.947
E34 [5], 333.3 nM	–	1.06
E34 [5], 1000 nM	–	1.02
E34 [5], 3000 nM	–	1.07
E34 [12], 4.1 nM	0.82	–
E34 [12], 12.3 nM	0.663	–
E34 [12], 37 nM	0.714	–
E34 [12], 111.1 nM	0.388	–
E34 [12], 333.3 nM	0.867	–
E34 [12], 1000 nM	0.392	–
E34 [12], 3000 nM	0.466	–
E57 [6], 4.1 nM	–	0.946
E57 [6], 12.3 nM	–	0.909
E57 [6], 37 nM	–	0.95
E57 [6], 111.1 nM	–	0.958
E57 [6], 333.3 nM	–	0.951
E57 [6], 1000 nM	–	0.953
E57 [6], 3000 nM	–	0.931
E57 [13], 4.1 nM	0.77	–
E57 [13], 12.3 nM	0.543	–
E57 [13], 37 nM	0.294	–
E57 [13], 111.1 nM	0.599	–
E57 [13], 333.3 nM	0.816	–
E57 [13], 1000 nM	0.662	–
E57 [13], 3000 nM	1.29	–
FT3469 [7], 4.1 nM	–	1.01
FT3469 [7], 12.3 nM	–	0.927
FT3469 [7], 37 nM	–	1
FT3469 [7], 111.1 nM	–	0.936
FT3469 [7], 333.3 nM	–	1.18
FT3469 [7], 1000 nM	–	0.822
FT3469 [7], 3000 nM	–	1.04
FT3469 [14], 4.1 nM	1.43	–
FT3469 [14], 12.3 nM	1.01	–
FT3469 [14], 37 nM	0.484	–
FT3469 [14], 111.1 nM	0.802	–
FT3469 [14], 333.3 nM	0.852	–
FT3469 [14], 1000 nM	0.793	–
FT3469 [14], 3000 nM	0.513	–

COc1cc([C@@H]2c3cc4c(cc3[C@@H](O[C@@H]3O[C@@H]5CO[C@@H](c6cccs6)O[C@H]5[C@H](O)[C@H]3O)[C@H]3COC(=O)[C@H]23)OCO4)cc(OC)c1O [Teniposide]
Details	phenotypic distance	surviving fraction
E13 [1], 4.1 nM	–	0.713
E13 [1], 12.3 nM	–	0.528
E13 [1], 37 nM	–	0.45
E13 [1], 111.1 nM	–	0.412
E13 [1], 333.3 nM	–	0.351
E13 [1], 1000 nM	–	0.305
E13 [1], 3000 nM	–	0.174
E13 [8], 4.1 nM	1.43	–
E13 [8], 12.3 nM	3.27	–
E13 [8], 37 nM	4.96	–
E13 [8], 111.1 nM	5.68	–
E13 [8], 333.3 nM	5.77	–
E13 [8], 1000 nM	5.12	–
E13 [8], 3000 nM	6.24	–
E21 [2], 4.1 nM	–	0.902
E21 [2], 12.3 nM	–	0.682
E21 [2], 37 nM	–	0.589
E21 [2], 111.1 nM	–	0.552
E21 [2], 333.3 nM	–	0.376
E21 [2], 1000 nM	–	0.145
E21 [2], 3000 nM	–	0.177
E21 [9], 4.1 nM	0.843	–
E21 [9], 12.3 nM	2.77	–
E21 [9], 37 nM	3.95	–
E21 [9], 111.1 nM	5.39	–
E21 [9], 333.3 nM	5.06	–
E21 [9], 1000 nM	6.2	–
E21 [9], 3000 nM	6.57	–
E28 [3], 4.1 nM	–	0.491
E28 [3], 12.3 nM	–	0.379
E28 [3], 37 nM	–	0.428
E28 [3], 111.1 nM	–	0.351
E28 [3], 333.3 nM	–	0.32
E28 [3], 1000 nM	–	0.269
E28 [3], 3000 nM	–	0.314
E28 [10], 4.1 nM	3.11	–
E28 [10], 12.3 nM	3.7	–
E28 [10], 37 nM	3.52	–
E28 [10], 111.1 nM	3.17	–
E28 [10], 333.3 nM	3.7	–
E28 [10], 1000 nM	3.58	–
E28 [10], 3000 nM	3.53	–
E31 [4], 4.1 nM	–	0.376
E31 [4], 12.3 nM	–	0.25
E31 [4], 37 nM	–	0.241
E31 [4], 111.1 nM	–	0.201
E31 [4], 333.3 nM	–	0.2
E31 [4], 1000 nM	–	0.243
E31 [4], 3000 nM	–	0.191
E31 [11], 4.1 nM	4.09	–
E31 [11], 12.3 nM	2.97	–
E31 [11], 37 nM	3.3	–
E31 [11], 111.1 nM	3.9	–
E31 [11], 333.3 nM	2.97	–
E31 [11], 1000 nM	2.67	–
E31 [11], 3000 nM	3.37	–
E34 [5], 4.1 nM	–	0.758
E34 [5], 12.3 nM	–	0.677
E34 [5], 37 nM	–	0.577
E34 [5], 111.1 nM	–	0.57
E34 [5], 333.3 nM	–	0.501
E34 [5], 1000 nM	–	0.447
E34 [5], 3000 nM	–	0.373
E34 [12], 4.1 nM	1.81	–
E34 [12], 12.3 nM	2.04	–
E34 [12], 37 nM	3.24	–
E34 [12], 111.1 nM	3.96	–
E34 [12], 333.3 nM	4.04	–
E34 [12], 1000 nM	2.46	–
E34 [12], 3000 nM	2.97	–
E57 [6], 4.1 nM	–	0.727
E57 [6], 12.3 nM	–	0.418
E57 [6], 37 nM	–	0.323
E57 [6], 111.1 nM	–	0.212
E57 [6], 333.3 nM	–	0.167
E57 [6], 1000 nM	–	0.178
E57 [6], 3000 nM	–	0.148
E57 [13], 4.1 nM	1.82	–
E57 [13], 12.3 nM	4.96	–
E57 [13], 37 nM	6.24	–
E57 [13], 111.1 nM	8.39	–
E57 [13], 333.3 nM	8.07	–
E57 [13], 1000 nM	6.94	–
E57 [13], 3000 nM	6.61	–
FT3469 [7], 4.1 nM	–	0.636
FT3469 [7], 12.3 nM	–	0.643
FT3469 [7], 37 nM	–	0.644
FT3469 [7], 111.1 nM	–	0.62
FT3469 [7], 333.3 nM	–	0.595
FT3469 [7], 1000 nM	–	0.629
FT3469 [7], 3000 nM	–	0.544
FT3469 [14], 4.1 nM	1.68	–
FT3469 [14], 12.3 nM	2.44	–
FT3469 [14], 37 nM	2.6	–
FT3469 [14], 111.1 nM	2.26	–
FT3469 [14], 333.3 nM	1.97	–
FT3469 [14], 1000 nM	1.78	–
FT3469 [14], 3000 nM	2.12	–
